From patent publication US20240408033A1, “CELL-DERIVED NANOVESICLES FOR IN VIVO TRANSPORT AND DELIVERY OF THERAPEUTIC MATERIALS” (The Board of Trustees of the Leland Stanford Junior …, priority 2021, published 2024)

Test system: GL-26 GBM cells
Assay: PI staining-based apoptosis FACS analysis, GL-26 cells
Settings: TMZ at 250 μM, alone or with mpEVs (50 pmol)
Text: We evaluated the therapeutic potential of miRNA-loaded mpEVs (50 pmol) in GL-26 cells in combination with TMZ and quantified the chemosensitizing effects of the miRNA-loaded mpEVs using PI staining-based FACS analysis (FIG. 13).
To investigate the chemosensitizing effect of miRNAs-loaded mpEVs in the absence and presence of TMZ at different concentrations, we seeded the U87 glioma cells at a density of 1×10^5 cells per well in 12-well plates. Next, we treated the cells with mpEVs from control and CXCR4-NSCs with and without loaded miRNAs. On the following day, we treated the cells with TMZ at different concentrations (0 μM, 250 μM, and 500 μM) for each kind of EV. At 24 h after TMZ administration, we collected the cells and fixed in ice cold 70% ethanol at −20° C. for 30 min. We then washed the fixed cells once with 2 ml of PBS and stained with PI (15 nM) in the presence of RNase A (10 mg/ml) and 0.01% Triton-X100 (Life Technologies, Grand Island, NY, USA). […] Likewise, the chemosensitizing effect of miRNA loaded mpEVs for TMZ therapy was also investigated against GL26 cells by using a similar procedure.

Q: `Cn1nnc2c(C(N)=O)ncn2c1=O` [TMZ, temozolomide] was tested. Which apoptotic cells did it give?
A: 13.9%
